Source: patent US11220504B2, “Pyrrolo[3,2-d] pyrimidine derivatives for the treatment of viral infections and other diseases” (JANSSEN SCIENCES IRELAND UNLIMITED COMPANY, priority 2012, dated 2022)

Assays:
[1] = target: T1, human TLR7 (Homo sapiens, UniProt Q9NYK1); assay: TLR7 cellular reporter assay (HEK293, NFκB-luc); format: cell-based; conditions: HEK293 cells transfected with CMV-TLR7 and NFκB-luc, 6 hours incubation; lowest effective concentration
T1 construct: expressed in transfected cells; host or cells: HEK293 cells, transient transfection with CMV-TLR7 plasmid and NFκB-luc plasmid
T1 sequence (Q9NYK1 27-1049): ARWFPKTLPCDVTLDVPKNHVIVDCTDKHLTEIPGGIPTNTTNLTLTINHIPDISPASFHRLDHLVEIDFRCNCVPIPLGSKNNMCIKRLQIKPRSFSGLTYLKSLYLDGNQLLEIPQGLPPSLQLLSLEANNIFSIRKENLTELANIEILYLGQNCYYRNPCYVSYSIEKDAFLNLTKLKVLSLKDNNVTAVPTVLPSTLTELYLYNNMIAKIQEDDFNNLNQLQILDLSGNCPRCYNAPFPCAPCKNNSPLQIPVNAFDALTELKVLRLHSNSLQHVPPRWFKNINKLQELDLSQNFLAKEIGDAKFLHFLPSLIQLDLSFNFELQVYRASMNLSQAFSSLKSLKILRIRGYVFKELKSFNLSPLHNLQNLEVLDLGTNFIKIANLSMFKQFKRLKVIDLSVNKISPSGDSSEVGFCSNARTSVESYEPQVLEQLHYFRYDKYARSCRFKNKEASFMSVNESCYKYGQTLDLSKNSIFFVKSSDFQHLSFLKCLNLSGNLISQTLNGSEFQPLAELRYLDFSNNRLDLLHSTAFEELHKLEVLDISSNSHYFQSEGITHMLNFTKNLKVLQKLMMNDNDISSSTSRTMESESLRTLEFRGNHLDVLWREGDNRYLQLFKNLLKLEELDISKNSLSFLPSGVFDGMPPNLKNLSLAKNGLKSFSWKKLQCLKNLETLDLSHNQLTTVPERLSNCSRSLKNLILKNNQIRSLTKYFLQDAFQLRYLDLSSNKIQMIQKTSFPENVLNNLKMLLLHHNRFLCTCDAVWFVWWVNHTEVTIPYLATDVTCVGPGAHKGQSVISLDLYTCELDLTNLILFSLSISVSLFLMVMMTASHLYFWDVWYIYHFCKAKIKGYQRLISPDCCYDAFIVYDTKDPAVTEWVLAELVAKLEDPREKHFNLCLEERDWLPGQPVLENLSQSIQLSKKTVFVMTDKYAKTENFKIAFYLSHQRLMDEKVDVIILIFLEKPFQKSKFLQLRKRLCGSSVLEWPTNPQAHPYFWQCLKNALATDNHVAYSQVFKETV
Description: (§1) The ability of compounds to activate human TLR7 and/or TLR8 was assessed in a cellular reporter assay using HEK293 cells transiently transfected with a TLR7 or TLR8 expression vector and NFκB-luc reporter construct.
(§2) Briefly, HEK293 cells were grown in culture medium (DMEM supplemented with 10% FCS and 2 mM Glutamine). […] Thirty microliters of cells were then dispensed into each well in 384-well plates, where 10 μL of compound in 4% DMSO was already present. Following 6 hours incubation at 37° C., 5% CO2, the luciferase activity was determined by adding 15 μL of Steady Lite Plus substrate (Perkin Elmer) to each well and readout performed on a ViewLux ultraHTS microplate imager (Perkin Elmer). Dose response curves were generated from measurements performed in quadruplicates.

[2] = target: T2, human TLR8 (Homo sapiens, UniProt Q9NR97); assay: TLR8 cellular reporter assay (HEK293, NFκB-luc); format: cell-based; conditions: HEK293 cells transfected with CMV-TLR8 and NFκB-luc, 6 hours incubation; lowest effective concentration
T2 construct: expressed in transfected cells; host or cells: HEK293 cells, transient transfection with TLR8 plasmid and NFκB-luc plasmid
T2 sequence (Q9NR97 27-1041): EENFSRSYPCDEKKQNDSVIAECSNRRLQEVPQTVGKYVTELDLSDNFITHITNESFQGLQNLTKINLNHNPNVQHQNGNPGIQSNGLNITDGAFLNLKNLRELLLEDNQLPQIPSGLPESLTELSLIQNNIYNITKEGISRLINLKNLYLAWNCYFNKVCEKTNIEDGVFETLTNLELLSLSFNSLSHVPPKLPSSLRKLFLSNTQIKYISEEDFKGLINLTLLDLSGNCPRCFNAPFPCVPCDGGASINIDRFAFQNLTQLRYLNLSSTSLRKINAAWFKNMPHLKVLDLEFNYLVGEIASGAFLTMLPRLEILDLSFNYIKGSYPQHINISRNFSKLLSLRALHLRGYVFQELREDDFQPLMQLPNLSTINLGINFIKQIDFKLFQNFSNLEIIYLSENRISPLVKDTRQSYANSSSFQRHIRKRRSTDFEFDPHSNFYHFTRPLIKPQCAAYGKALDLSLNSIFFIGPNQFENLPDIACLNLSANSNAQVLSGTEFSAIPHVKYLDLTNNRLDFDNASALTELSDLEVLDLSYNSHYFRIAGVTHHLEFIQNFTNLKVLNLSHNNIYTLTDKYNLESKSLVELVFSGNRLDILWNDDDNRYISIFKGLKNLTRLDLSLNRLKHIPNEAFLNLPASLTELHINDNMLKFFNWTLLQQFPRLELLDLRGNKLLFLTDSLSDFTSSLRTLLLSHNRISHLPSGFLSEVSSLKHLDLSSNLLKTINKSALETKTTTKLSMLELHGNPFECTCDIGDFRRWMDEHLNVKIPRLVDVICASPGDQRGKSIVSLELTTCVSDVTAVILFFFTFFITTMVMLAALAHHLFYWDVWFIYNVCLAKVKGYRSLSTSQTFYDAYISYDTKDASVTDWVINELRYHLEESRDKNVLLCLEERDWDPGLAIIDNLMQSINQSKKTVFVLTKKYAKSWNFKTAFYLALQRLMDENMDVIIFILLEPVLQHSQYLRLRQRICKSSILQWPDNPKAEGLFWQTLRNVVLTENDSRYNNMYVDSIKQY
Description: as §1, §2

[3] = test system: interferon-stimulated responsive elements (ISRE); assay: Activation of ISRE promoter elements by conditioned media from PBMC (HEK-ISREluc); format: cell-based, human; conditions: Homo sapiens; conditioned media from PBMC transferred to HEK-ISREluc cells, 24 hours; lowest effective concentration; read-out: PBMC LEC
Description: The potential of compounds to induce IFN-I was also evaluated by measuring the activation of interferon-stimulated responsive elements (ISRE) by conditioned media from PBMC. The ISRE element of sequence […] (SEQ. ID NO:1) is highly responsive to the STAT1-STAT2-IRF 9 transcription factor, activated upon binding of IFN-I to their receptor IFNAR (Clontech, PT3372-5W). […] A HEK293 cell line stably transfected with pISRE-Luc (HEK-ISREluc) was established to profile of the conditioned PBMC cell culture media.
Briefly, PBMCs were prepared from buffy coats of at least two donors using a standard Ficoll centrifugation protocol. Isolated PBMCs were resuspended in RPMI medium supplemented with 10% human AB serum and 2×10^5 cells/well were dispensed into 384-well plates containing compounds (70 μL total volume). After overnight incubation, 10 μL of supernatant was transferred to 384-well plates containing 5×10^3 HEK-ISREluc cells/well in 30 μL (plated the day before). Following 24 hours of incubation, activation of the ISRE elements was measured by assaying luciferase activity using 40 μL/well Steady Lite Plus substrate (Perkin Elmer) and measured with ViewLux ultraHTS microplate imager (Perkin Elmer). The stimulating activity of each compound on the HEK-ISREluc cells was reported as LEC value, defined as the compound concentration applied to the PBMCs resulting in a luciferase activity at least two fold above the standard deviation of the assay. The LEC in turn indicates the degree of ISRE activation on transfer of a defined amount of PBMC culture medium. Recombinant interferon α-2a (Roferon-A) was used as a standard control compound.

Row | Compound | TLR7 LEC [1] | TLR8 LEC [2] | minimal effective concentration [3]
1 | CCCCNc1nc(N)nc2ccn(Cc3ccccc3-c3ccccc3)c12 [Compound 7] | 0.61 µM | >25 µM | 0.8 µM
2 | CCCCNc1nc(N)nc2ccn(CCCC)c12 [Compound 8] | 0.49 µM | 1.7 µM | 0.15 µM
3 | CCCCNc1nc(N)nc2ccn(CCC)c12 [Compound 9] | 0.53 µM | 2.1 µM | 0.22 µM
4 | CCCCNc1nc(N)nc2ccn(CCc3ccccc3)c12 [Compound 11] | 1.5 µM | 3.5 µM | 0.56 µM
5 | CCCCNc1nc(N)nc2ccn(Cc3ccccc3Cl)c12 [Compound 13] | 0.80 µM | >25 µM | 0.89 µM
6 | CCCC[C@@H](CO)Nc1nc(N)nc2ccn(Cc3cccnn3)c12 [Compound 14] | 0.52 µM | 6.57 µM | 0.01 µM
7 | CCC[C@@H](CO)Nc1nc(N)nc2ccn(Cc3cccnn3)c12 [Compound 15] | 5.84 µM | >25 µM | 0.1 µM
8 | CCCCNc1nc(N)nc2ccn(Cc3ccc(F)c(Cl)c3)c12 [Compound 16] | 0.89 µM | >25 µM | 0.6 µM
9 | CCC[C@@H](CO)Nc1nc(N)nc2ccn(Cc3ccccc3)c12 [Compound 17] | 0.07 µM | 12.5 µM | 0.01 µM
10 | CCCCNc1nc(N)nc2ccn(C(C)C)c12 [Compound 19] | 2.5 µM | 7.06 µM | 0.62 µM
11 | CCCCNc1nc(N)nc2ccn(Cc3cc(C)on3)c12 [Compound 20] | 0.14 µM | 1.3 µM | 0.02 µM
12 | CCC[C@@H](CCO)Nc1nc(N)nc2ccn(Cc3ccccc3)c12 [Compound 21] | 0.009 µM | 7.4 µM | 0.0007 µM
13 | CCC[C@@H](CO)Nc1nc(N)nc2ccn(Cc3ccccn3)c12 [Compound 22] | 0.48 µM | 9.2 µM | 0.02 µM
14 | CCCNc1nc(N)nc2ccn(Cc3ccccc3)c12 [Compound 23] | 0.83 µM | >25 µM | 0.27 µM
15 | CCC[C@@H](CCO)Nc1nc(N)nc2ccn(Cc3ccccn3)c12 [Compound 24] | 0.02 µM | 6.47 µM | 0.0007 µM
16 | CCCC[C@@H](CCO)Nc1nc(N)nc2ccn(Cc3ccccn3)c12 [Compound 25] | 0.01 µM | 2.84 µM | 0.001 µM
17 | CCC[C@@H](CO)Nc1nc(N)nc2ccn(CC(C)C)c12 [Compound 27] | 0.15 µM | 0.85 µM | 0.17 µM
18 | CCCC[C@@H](CCO)Nc1nc(N)nc2ccn(CC(C)C)c12 [Compound 28] | 0.11 µM | 1.1 µM | 0.03 µM
19 | CCCCCNc1nc(N)nc2ccn(Cc3ccccc3)c12 [Compound 29] | 0.15 µM | >25 µM | 0.04 µM
20 | CCC[C@@H](CCO)Nc1nc(N)nc2ccn(CC(C)C)c12 [Compound 30] | 0.16 µM | 0.67 µM | 0.05 µM
21 | CCC[C@H](CO)Nc1nc(N)nc2ccn(Cc3ccccc3)c12 [Compound 31] | 0.22 µM | >25 µM | 0.16 µM
22 | CC(C)CNc1nc(N)nc2ccn(Cc3ccccc3)c12 [Compound 32] | 0.91 µM | >25 µM | 0.52 µM
23 | CCCC(C)Nc1nc(N)nc2ccn(Cc3ccccc3)c12 (stereo not drawn) [Compound 33] | 0.03 µM | >25 µM | 0.04 µM
24 | COCCNc1nc(N)nc2ccn(Cc3ccccc3)c12 [Compound 34] | 0.91 µM | >25 µM | 0.54 µM
25 | CCNc1nc(N)nc2ccn(Cc3ccccc3)c12 [Compound 35] | 1.49 µM | >25 µM | 0.7 µM
26 | Nc1nc(NCCCO)c2c(ccn2Cc2ccccc2)n1 [Compound 36] | 1.06 µM | >25 µM | 0.59 µM
27 | CCCC[C@@H](CCO)Nc1nc(N)nc2ccn(Cc3ccccc3)c12 [Compound 37] | 0.005 µM | >25 µM | 0.007 µM
28 | CC[C@H](C)[C@@H](CO)Nc1nc(N)nc2ccn(Cc3ccccc3)c12 [Compound 38] | 0.54 µM | >25 µM | 0.63 µM
